The values that follow come from patent US20090239929A1, “N-Pyrrolidin-3-YL-Amide Derivatives As Serotonin and Noradrenalin Re-Uptake Inhibitors” (priority 2004, published 2009).

Structures can show the parent of a compound that is named as a salt.

The target in assay [1] is T1, human serotonin transporter (hSERT) (Homo sapiens, UniProt P31645).
T1 construct: expressed in transfected cells; host or cells: HEK-293
The assay can be described thus: SPA radioligand binding (3H-citalopram) at the human serotonin transporter. Conditions: hSERT membranes from HEK-293 cells, Cheng-Prusoff, geometric mean, read-out: SRI Ki. As to the method: (§1) The compounds were tested for biological activity by their ability to inhibit binding of selective radioligands at the human serotonin and noradrenaline transporters (SERT and NET, respectively), using scintillation proximity assay (SPA) technology. The SPA binding was performed using cellular membrane preparations prepared from cell lines expressing human cDNA encoding either SERT or NET (hSERT, hNET), using the radioligands ^3H-citalopram and ^3H-nisoxetine.
(§2) Human embryonic kidney cells (HEK-293) expressing each transporter were maintained as a continuous culture, using standard cell culture techniques, in 50 mL of growth medium (see Media and Buffers for composition) in 225 cm^2 flasks, at 37° C. in a humidified atmosphere with 5% CO2 present. Cells were passaged from a 90% confluent monolayer at a ratio of 1:3-1:4.
(§3) For cell harvesting, the growth medium was removed from the monolayer and the cells were incubated with cell dissociation solution (Sigma) until showing signs of dissociation. The cells were subsequently knocked from the base of the flask and pelleted by centrifugation for storage (frozen at −80° C.) prior to further use.
(§4) Cell pellets were thawed on ice and resuspended in 3 mL of membrane preparation buffer (see Media and Buffers for composition) per 1 mL of packed cell volume, using a vortex mixer to disperse the cell pellet.
(§5) After incubation on ice for 10 minutes, the suspension was homogenised for four individual 10 second intervals using a hand-held homogeniser. The homogenate was then centrifuged at 1075×g for 20 minutes at 4° C.
(§6) The supernatants were then collected and retained. Initial cell & nuclei pellets (P1) were subsequently rehomogenised and centrifuged using the conditions cited above, and the supernatants collected and pooled with those retained from the first spin.
(§7) The pooled supernatants were centrifuged at 35000×g for 30 minutes at 4° C., and the supernatants discarded. The pellets (P2) were then resuspended in 1 mL of membrane preparation buffer per 1 mL of the original packed cell volume. Protein concentrations were then measured and the membrane suspension was finally frozen in aliquots of set volume and stored at −80° C. prior to use in assays.
(§8) The specific SPA bead type differed for each transporter, wheat germ agglutinin-coated yttrium silicate (YSi WGA) SPA beads were used for hSERT and WGA-coated polyvinyltoluene (PVT WGA) SPA beads for hNET assays. For each batch of membrane used, optimal concentrations of bead and membrane were determined
(§9) Tritiated radioligands specific to each transporter (^3H-citalopram for hSERT and ^3H-nisoxetine for hNET) were used. The assay free radioligand concentration was expressed as a percentage of the total free radioligand concentration to give an estimate of the radioligand depletion. The radioligand depletion in assays for both transporters was less than 30% to ensure that there was sufficient radioligand available for binding. The ligand depletion value was also used for selecting the optimal assay conditions when using new batches of membranes.
(§10) The affinity of the specific radioligand for the respective transporter was determined for each membrane batch at the selected protein and bead concentrations. This was achieved by the determination of the KD, the concentration of free radioligand at which 50% of the transporter binding sites were occupied. The mean KD for a radioligand at a batch of membranes was determined from data from a minimum of three separate assays. The mean KD was subsequently used for all assays using the membrane batch profiled to enable determination of Ki values of compounds studied using the method determined by Cheng and Prussoff (Cheng Y C and Prusoff W H. Relationship between the inhibition constant (Ki) and the concentration of inhibitor which causes 50% inhibition of an enzymatic reaction. Biochem Pharmacol 1973; 22:2099-[…].) […]

Assay [2] concerns the target T2, human noradrenaline transporter (hNET) (Homo sapiens, UniProt P23975).
T2 construct: expressed in transfected cells; host or cells: HEK-293
The assay can be described thus: SPA radioligand binding (3H-nisoxetine) at the human noradrenaline transporter. To be noted: hNET membranes from HEK-293 cells, Cheng-Prusoff, geometric mean, read-out: NRI Ki. The protocol:
as §1, §2, §3, §4, §5, §6, §7, §8, §9, §10

T2 sequence (P23975 whole entry): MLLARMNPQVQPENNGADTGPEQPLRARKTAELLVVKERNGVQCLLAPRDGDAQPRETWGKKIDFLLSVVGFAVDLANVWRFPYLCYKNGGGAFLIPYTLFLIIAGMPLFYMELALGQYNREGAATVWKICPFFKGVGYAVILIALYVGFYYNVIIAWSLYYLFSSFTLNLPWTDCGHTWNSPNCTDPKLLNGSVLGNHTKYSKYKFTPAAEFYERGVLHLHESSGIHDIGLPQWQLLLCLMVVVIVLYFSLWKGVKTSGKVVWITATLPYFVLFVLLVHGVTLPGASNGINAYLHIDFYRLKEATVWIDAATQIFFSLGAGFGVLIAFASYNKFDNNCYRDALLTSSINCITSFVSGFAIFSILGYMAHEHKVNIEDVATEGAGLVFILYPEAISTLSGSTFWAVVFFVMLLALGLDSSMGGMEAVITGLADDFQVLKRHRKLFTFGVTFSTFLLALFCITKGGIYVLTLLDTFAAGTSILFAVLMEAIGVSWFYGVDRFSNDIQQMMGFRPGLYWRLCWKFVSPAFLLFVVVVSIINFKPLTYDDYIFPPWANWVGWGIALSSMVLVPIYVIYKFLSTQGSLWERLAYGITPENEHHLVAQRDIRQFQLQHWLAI
T1 sequence (P31645 whole entry): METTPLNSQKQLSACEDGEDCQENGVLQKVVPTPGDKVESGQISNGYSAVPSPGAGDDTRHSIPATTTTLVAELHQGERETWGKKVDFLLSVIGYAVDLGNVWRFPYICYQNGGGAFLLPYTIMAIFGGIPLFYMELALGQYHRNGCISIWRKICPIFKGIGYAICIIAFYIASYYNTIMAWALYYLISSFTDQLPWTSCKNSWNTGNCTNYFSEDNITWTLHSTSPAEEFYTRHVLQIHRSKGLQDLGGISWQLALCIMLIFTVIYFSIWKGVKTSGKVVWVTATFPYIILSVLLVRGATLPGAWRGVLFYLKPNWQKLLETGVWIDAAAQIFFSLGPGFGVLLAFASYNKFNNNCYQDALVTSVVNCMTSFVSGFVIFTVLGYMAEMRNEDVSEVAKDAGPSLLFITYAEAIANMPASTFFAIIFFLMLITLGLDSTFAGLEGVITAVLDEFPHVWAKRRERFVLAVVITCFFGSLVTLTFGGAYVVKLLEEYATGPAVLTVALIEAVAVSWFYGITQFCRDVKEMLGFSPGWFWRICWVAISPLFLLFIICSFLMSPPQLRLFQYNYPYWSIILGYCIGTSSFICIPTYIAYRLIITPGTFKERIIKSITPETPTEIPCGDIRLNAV

The term Ki denotes the equilibrium dissociation constant of an inhibitor or competing ligand from its target. Regarding `O=C(c1cccc(Cl)c1Cl)N([C@H]1C[C@H]2CC[C@H]2C1)[C@H]1CCNC1` [Example 1, N-(1R,3r,5 S)-Bicyclo[3.2.0]hept-3-yl-2,3-dichloro-N-[(3S)-pyrrolidin-3-yl]benzamide], the results for the Ki in assay [1] and in assay [2] were 9 nM and 12 nM, respectively.
`O=C(c1ccccc1C(F)(F)F)N(C1CC2CCC1C2)[C@H]1CCNC1` (stereo partly drawn) [Example 3, N-Bicyclo[2.2.1]hept-2-yl-2-(trifluoromethyl)N-[(3S)pyrrolidin-3-yl]benzamide]: the inhibitory constant (Ki) in assay [1] was 30 nM; in assay [2] it was 28 nM.
As for `O=C(c1ccccc1Cl)N(C1CC2CCC1C2)[C@H]1CCNC1` (stereo partly drawn) [Example 4, N-Bicyclo[2.2.1]hept-2-yl-2-chloro-N-[(3S)-pyrrolidin-3-yl]benzamide], the Ki in assay [1] is 6 nM; in assay [2], 25 nM.
Turning to `O=C(c1cccc(Cl)c1Cl)N(CCC(F)(F)F)[C@H]1CCNC1` [Example 5, 2,3-Dichloro-N-[(3S)-pyrrolidin-3-yl]-N-(3,3,3-trifluoropropyl)benzamide hydrochloride], the Ki in assay [1] was determined as 21 nM; in assay [2] it was 58 nM.
With `CC(F)(F)CN(C(=O)c1ccccc1Oc1ccccc1)[C@H]1CCNC1` [Example 7, N-(2,2-Difluoropropyl)-2-phenoxy-N-[(3S)-pyrrolidin-3-yl]benzamide hydrochloride], the Ki is 1590 nM in assay [1] and 10 nM in assay [2].
Turning to `O=C(c1cccc(Cl)c1Cl)N(C(C1CC1)C1CC1)[C@H]1CCNC1` [Example 10, 2,3-dichloro-N-(dicyclopropylmethyl)-N-[(3S)-pyrrolidin-3-yl]benzamide hydrochloride], the Ki in assay [1] was 11 nM; in assay [2] it was 72 nM.
